Data taken from publication PMC12519461 (ACS Infectious Diseases, 2025).
Where two headings read alike, the source gives them in different places.

What was measured:
A. cantonensis L1 larvae = assay: Anthelmintic activity against A. cantonensis first-stage larvae (motility/viability, 24 h); assay type: cell-based, Angiostrongylus cantonensis; details: for EC50: 24 h, read-out: A. cantonensis EC50 (μM ± SEM) L1; for activity against the larvae (in words): A. cantonensis larvae in vitro
Protocol: (§1) Larvae were washed three times in RPMI 1640 medium supplemented with 100 U/mL penicillin and 100 μg/mL streptomycin. Approximately 50 larvae were allocated into individual wells of a 96-well plate containing 200 μL of final volume of RPMI medium. […] Approximately 50 larvae were transferred to each well of a 96-well plate containing RPMI medium. […] Larval viability was monitored at 0 and 24 h post-treatment. […] Assays were performed in triplicate and repeated three times.

[1] = Cytotoxicity in HaCat cells (MTT, 72 h); assay type: cell-based; details: human, from 500 μM
Protocol: Cytotoxicity was assessed using the MTT assay. After 72 h, MTT solution was added, followed by 3 h of incubation. Absorbance was measured at 595 nm using an Epoch Microplate Spectrophotometer (BioTek Instruments, Winooski, VT, USA). Assays were performed in triplicate and repeated three times.

A. cantonensis L3 larvae = assay: Anthelmintic activity against A. cantonensis infective third-stage larvae (motility/viability, 24 h); assay type: cell-based, Angiostrongylus cantonensis; details: in vitro, 21 °C, read-out: A. cantonensis EC50 (μM ± SEM) L3
Protocol: as §1

in vitro = assay type: cell-based; details: L4 larvae, up to 1000 μM, read-out: C. elegans LC50
Protocol: Synchronized fourth-stage (L4) C. elegans larvae were distributed into 96-well plates containing M9 buffer (60 larvae/well). […] After 24 h incubation at 21 °C, larval survival was determined by motility: larvae unresponsive to gentle mechanical stimulation were classified as nonviable. […] Assays were performed in triplicate and repeated three times.

[2] = Angiostrongylus cantonensis, first-stage larvae (L1), in vitro, 21 °C
[3] = first-stage larvae (L1), in vitro, 21 °C

Row | Structure (SMILES) | EC50 (A. cantonensis L1 larvae; [2]) [µM] | CC50 at 72 h ([1]; HaCat cells) [µM] | EC50 (A. cantonensis L3 larvae; Angiostrongylus cantonensis) [µM] | LC50 at 24 h (in vitro) [µM] | EC50 (A. cantonensis L1 larvae; [3]) [µM] | EC50 (A. cantonensis L3 larvae) [µM] | activity against the larvae (in words) (A. cantonensis L1 larvae) | EC50 (A. cantonensis L1 larvae; Angiostrongylus cantonensis) [µM] | CC50 at 72 h [1] [µM]
1 | Clc1ccc(C(c2ccccc2)N2CCN(C/C=C/c3ccccc3)CC2)cc1 (stereo not shown) [compound 2, 1-[(4-Chlorophenyl)-phenyl-methyl]-4-[(E)-cinnamyl]piperazine, reference compound] | 4.2 ± 1.1 | > 500 | 8.6 ± 1.1 | > 1000 | – | – | – | – | –
2 | O=C(/C=C/c1ccc(O)c(O)c1)N1CCN(C(c2ccccc2)c2ccccc2)CC1 [compound 3e, (E)-1-(4-Benzhydrylpiperazin-1-yl)-3-(3,4-dihydroxyphenyl)prop-2-en-1-one] | > 100 | > 500 | – | > 1000 | – | – | – | – | –
3 | COc1ccc(/C=C/CN2CCN(C(c3ccccc3)c3ccc(Cl)cc3)CC2)cc1 (stereo not shown) [compound 2b, 1-[(4-Chlorophenyl)-phenyl-methyl]-4-[(E)-3-(4-methoxyphenyl)allyl]piperazine] | 8.2 to 9.3 | > 500 | 8.2 to 9.3 | > 1000 | 9.3 ± 0.9 | 8.8 ± 1.2 | – | – | –
4 | COc1ccc(/C=C/C(=O)N2CCN(C(c3ccccc3)c3ccccc3)CC2)cc1 [compound 3b, (E)-1-(4-Benzhydrylpiperazin-1-yl)-3-(4-methoxyphenyl)prop-2-en-1-one] | > 100 | > 500 | – | > 1000 | – | – | – | – | –
5 | C(=C\c1ccccc1)/CN1CCN(C(c2ccccc2)c2ccccc2)CC1 [compound 1, cinnarizine, reference compound] | – | – | – | > 1000 | – | – | – | – | –
6 | O=C(/C=C/c1ccccc1)N1CCN(Cc2ccccc2)CC1 [compound 3a, (E)-1-(4-Benzylpiperazin-1-yl)-3-phenyl-prop-2-en-1-one] | 8.2 | > 500 | 18.1 ± 1.5 | > 1000 | 8.7 ± 1.1 | – | – | – | –
7 | COc1cc(/C=C/C(=O)N2CCN(C(c3ccccc3)c3ccccc3)CC2)ccc1O [compound 3d, (E)-1-(4-Benzhydrylpiperazin-1-yl)-3-(4-hydroxy-3-methoxy-phenyl)prop-2-en-1-one] | > 100 | > 500 | – | > 1000 | – | – | – | – | –
8 | Clc1ccc(CN2CCN(C/C=C/c3ccccc3)CC2)cc1 [compound 2a, 1-[(4-Chlorophenyl)methyl]-4-[(E)-cinnamyl]piperazine] | > 100 | > 500 | – | > 1000 | – | – | no appreciable activity | – | –
9 | O=C(/C=C/c1ccc(O)cc1)N1CCN(C(c2ccccc2)c2ccccc2)CC1 [compound 3c, (E)-1-(4-Benzhydrylpiperazin-1-yl)-3-(4-hydroxyphenyl)prop-2-en-1-one] | > 100 | > 500 | – | > 1000 | – | – | – | – | –
10 | COc1ccc(/C=C/CN2CCN(C(c3ccccc3)c3ccccc3)CC2)cc1 [compound 1b, 1-Benzhydryl-4-[(E)-3-(4-methoxyphenyl)allyl]piperazine] | 8.2 to 9.3 | > 500 | 8.2 to 9.3 | > 1000 | 8.2 ± 1.2 | 8.7 ± 0.9 | – | – | –
11 | O=C(/C=C/c1ccccc1)N1CCN(C(c2ccccc2)c2ccccc2)CC1 [compound 3, (E)-1-(4-Benzhydrylpiperazin-1-yl)-3-phenyl-prop-2-en-1-one] | > 100 | > 500 | – | > 1000 | – | – | no activity | – | –
12 | C(=C\c1ccccc1)/CN1CCN(Cc2ccccc2)CC1 [compound 1a, 1-Benzyl-4-[(E)-cinnamyl]piperazine] | > 100 | > 500 | – | > 1000 | – | – | no appreciable activity | – | –
13 | CCCSc1ccc2nc(NC(=O)OC)[nH]c2c1 [albendazole, reference compound] | – | – | – | 14.8 ± 1.5 | – | – | – | 14.2 ± 1.1 | > 500
